Experimental data reported in ChEMBL document CHEMBL1201862, “PubChem BioAssay data set” (2004).
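The compound was tested at five concentrations on cells cultured in 96-well plates, with a 48-hour exposure period. Abbreviation: GI50, concentration required for 50% inhibition of growth.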 The source made the active and inactive calls. Cut-off read from the data, not from the text of the source: active = GI50 up to about 1.1 µM and inactive = higher.

Key:
Assay in all cases: inhibition of tumour cell growth, NCI panel, 48 h
NCI-H522 = system: NCI-H522
SF-268 = system: SF-268
HT-29 = system: HT-29
MOLT-4 = system: MOLT-4
HOP-62 = system: HOP-62
SK-MEL-5 = system: SK-MEL-5
SN12C = system: SN12C
CCRF-CEM = system: CCRF-CEM
SK-MEL-2 = system: SK-MEL-2
LOX IMVI = system: LOX IMVI
SNB-19 = system: SNB-19
LXFL 529 = system: LXFL 529
HL-60 = system: HL-60
SR = system: SR

Measured: GI50

c1ccc(C2=NOC3COc4ccccc4OCC23)cc1 (stereo not given)
inactive: NCI-H522 > 100 µM | SF-268 > 100 µM | HT-29 > 100 µM | MOLT-4 > 100 µM | HOP-62 > 100 µM | SK-MEL-5 61.5 µM | SN12C > 100 µM | CCRF-CEM > 100 µM | SK-MEL-2 > 100 µM | LOX IMVI > 100 µM | SNB-19 > 100 µM | LXFL 529 > 100 µM | HL-60 89.5 µM | SR > 100 µM

CCc1oc2ccc(OC)c3c2c1C=CC=C3
inactive: NCI-H522 > 100 µM | SF-268 > 100 µM | HT-29 77.3 µM | MOLT-4 > 100 µM | HOP-62 > 100 µM | SK-MEL-5 > 100 µM | SN12C > 100 µM | CCRF-CEM > 100 µM | SK-MEL-2 > 100 µM | LOX IMVI > 100 µM | SNB-19 > 100 µM | LXFL 529 > 100 µM | HL-60 87.7 µM | SR > 100 µM

CCCCC(C(=O)C(=O)NC1C2CC3CC(C2)CC1C3)C(=O)C(C)C (stereo not given)
inactive: NCI-H522 > 100 µM | SF-268 > 100 µM | HT-29 > 100 µM | MOLT-4 > 100 µM | HOP-62 > 100 µM | SK-MEL-5 > 100 µM | SN12C > 100 µM | CCRF-CEM > 100 µM | SK-MEL-2 > 100 µM | LOX IMVI > 100 µM | SNB-19 > 100 µM | LXFL 529 > 100 µM | HL-60 > 100 µM | SR > 100 µM

CCOC(=O)N1C/C(=C\c2ccc(N(C)C)cc2)C(=O)/C(=C/c2ccc(N(C)C)cc2)C1
inactive: NCI-H522 > 100 µM | SF-268 > 100 µM | HT-29 > 100 µM | MOLT-4 > 100 µM | HOP-62 > 100 µM | SK-MEL-5 > 100 µM | SN12C > 100 µM | CCRF-CEM > 100 µM | SK-MEL-2 > 100 µM | LOX IMVI > 100 µM | SNB-19 > 100 µM | LXFL 529 > 100 µM | HL-60 > 100 µM | SR > 100 µM

O=C(CO)CC(=O)C(=O)Nc1nc([N+](=O)[O-])cs1
inactive: NCI-H522 > 100 µM | SF-268 > 100 µM | HT-29 > 100 µM | MOLT-4 > 100 µM | HOP-62 > 100 µM | SK-MEL-5 > 100 µM | SN12C > 100 µM | CCRF-CEM > 100 µM | SK-MEL-2 > 100 µM | LOX IMVI > 100 µM | SNB-19 > 100 µM | LXFL 529 > 100 µM | HL-60 > 100 µM | SR > 100 µM
